According to patent publication US7235570B2, “1,4-dihydropyridine and pyridine compounds as calcium channel blockers” (Vittal Mallya Scientific Research, priority 2002, dated 2007):

Molecular target: T1, T-type calcium channels (α1G) (Homo sapiens, UniProt O43497)
T1 construct: expressed in transfected cells
Test: T-type calcium channel block, whole-cell voltage clamp in HEK293 cells
Assay type: cell-based
Conditions: α1G stably expressed in HEK293 cells, step to −30 mV from holding potential −110 mV
Procedure: T-type calcium channels (α1G) were stably expressed in HEK293 cells and maintained at 37° C. in DMEM. Cells were released from dishes using trypsin and EGTA or Accutase and studied within 4 hours of isolation. Individual cells were placed on the stage of an inverted microscope and patched with pipettes pulled from aluminasilicate glass capillary tubes, which had resistances of 0.8-1.5 Mohm. Currents were recorded using an Axopatch 200 (Axon Instruments, Inc.) and pClamp data acquisition software (8.1). The pipette solution contained (in mM): KCl 130, EGTA 11, HEPES 10, MGATP 5, pH ═7.4. The bath solution contained (in mM): NaCl 140, CaCl2 1, HEPES 10, pH═7.4. Test compounds were diluted into bath solution to the desired concentration (100 nM-10 μM) from a stock solutions (3 or 10 mM in DMSO). Current measurements were made at 20-23° C. Cells were held at −110 mV in order to maximize occupancy in the closed state and depolarized for 100 ms to various potentials. Currents were capacity corrected using 16-64 subthreshold responses (voltage steps of 10 or 20 mV) and leak subtracted, based on linear interpolation between the current at the holding potential and 0 mV. Cells were moved from a control chamber to a chamber with test compound and the effect of the drug was assessed using a voltage clamp protocol that stepped to −30 mV for 100 ms from a holding potential of −110 mV once every 5 s. After each 10-13 minutes, the train protocol was interrupted and a full current voltage relationship obtained. In general for each compound, four cells were studied for a minimum of 13 minutes, two in drug at 500 nM and two at 1 μM. In some cases other concentrations were also studied. Data were analyzed using Matlab (Mathworks, Natick, Mass.). Drug efficacy was estimated using the relationship: Blocked Fraction=[Drug]/(IC50+[Drug])

T1 sequence (O43497 whole entry): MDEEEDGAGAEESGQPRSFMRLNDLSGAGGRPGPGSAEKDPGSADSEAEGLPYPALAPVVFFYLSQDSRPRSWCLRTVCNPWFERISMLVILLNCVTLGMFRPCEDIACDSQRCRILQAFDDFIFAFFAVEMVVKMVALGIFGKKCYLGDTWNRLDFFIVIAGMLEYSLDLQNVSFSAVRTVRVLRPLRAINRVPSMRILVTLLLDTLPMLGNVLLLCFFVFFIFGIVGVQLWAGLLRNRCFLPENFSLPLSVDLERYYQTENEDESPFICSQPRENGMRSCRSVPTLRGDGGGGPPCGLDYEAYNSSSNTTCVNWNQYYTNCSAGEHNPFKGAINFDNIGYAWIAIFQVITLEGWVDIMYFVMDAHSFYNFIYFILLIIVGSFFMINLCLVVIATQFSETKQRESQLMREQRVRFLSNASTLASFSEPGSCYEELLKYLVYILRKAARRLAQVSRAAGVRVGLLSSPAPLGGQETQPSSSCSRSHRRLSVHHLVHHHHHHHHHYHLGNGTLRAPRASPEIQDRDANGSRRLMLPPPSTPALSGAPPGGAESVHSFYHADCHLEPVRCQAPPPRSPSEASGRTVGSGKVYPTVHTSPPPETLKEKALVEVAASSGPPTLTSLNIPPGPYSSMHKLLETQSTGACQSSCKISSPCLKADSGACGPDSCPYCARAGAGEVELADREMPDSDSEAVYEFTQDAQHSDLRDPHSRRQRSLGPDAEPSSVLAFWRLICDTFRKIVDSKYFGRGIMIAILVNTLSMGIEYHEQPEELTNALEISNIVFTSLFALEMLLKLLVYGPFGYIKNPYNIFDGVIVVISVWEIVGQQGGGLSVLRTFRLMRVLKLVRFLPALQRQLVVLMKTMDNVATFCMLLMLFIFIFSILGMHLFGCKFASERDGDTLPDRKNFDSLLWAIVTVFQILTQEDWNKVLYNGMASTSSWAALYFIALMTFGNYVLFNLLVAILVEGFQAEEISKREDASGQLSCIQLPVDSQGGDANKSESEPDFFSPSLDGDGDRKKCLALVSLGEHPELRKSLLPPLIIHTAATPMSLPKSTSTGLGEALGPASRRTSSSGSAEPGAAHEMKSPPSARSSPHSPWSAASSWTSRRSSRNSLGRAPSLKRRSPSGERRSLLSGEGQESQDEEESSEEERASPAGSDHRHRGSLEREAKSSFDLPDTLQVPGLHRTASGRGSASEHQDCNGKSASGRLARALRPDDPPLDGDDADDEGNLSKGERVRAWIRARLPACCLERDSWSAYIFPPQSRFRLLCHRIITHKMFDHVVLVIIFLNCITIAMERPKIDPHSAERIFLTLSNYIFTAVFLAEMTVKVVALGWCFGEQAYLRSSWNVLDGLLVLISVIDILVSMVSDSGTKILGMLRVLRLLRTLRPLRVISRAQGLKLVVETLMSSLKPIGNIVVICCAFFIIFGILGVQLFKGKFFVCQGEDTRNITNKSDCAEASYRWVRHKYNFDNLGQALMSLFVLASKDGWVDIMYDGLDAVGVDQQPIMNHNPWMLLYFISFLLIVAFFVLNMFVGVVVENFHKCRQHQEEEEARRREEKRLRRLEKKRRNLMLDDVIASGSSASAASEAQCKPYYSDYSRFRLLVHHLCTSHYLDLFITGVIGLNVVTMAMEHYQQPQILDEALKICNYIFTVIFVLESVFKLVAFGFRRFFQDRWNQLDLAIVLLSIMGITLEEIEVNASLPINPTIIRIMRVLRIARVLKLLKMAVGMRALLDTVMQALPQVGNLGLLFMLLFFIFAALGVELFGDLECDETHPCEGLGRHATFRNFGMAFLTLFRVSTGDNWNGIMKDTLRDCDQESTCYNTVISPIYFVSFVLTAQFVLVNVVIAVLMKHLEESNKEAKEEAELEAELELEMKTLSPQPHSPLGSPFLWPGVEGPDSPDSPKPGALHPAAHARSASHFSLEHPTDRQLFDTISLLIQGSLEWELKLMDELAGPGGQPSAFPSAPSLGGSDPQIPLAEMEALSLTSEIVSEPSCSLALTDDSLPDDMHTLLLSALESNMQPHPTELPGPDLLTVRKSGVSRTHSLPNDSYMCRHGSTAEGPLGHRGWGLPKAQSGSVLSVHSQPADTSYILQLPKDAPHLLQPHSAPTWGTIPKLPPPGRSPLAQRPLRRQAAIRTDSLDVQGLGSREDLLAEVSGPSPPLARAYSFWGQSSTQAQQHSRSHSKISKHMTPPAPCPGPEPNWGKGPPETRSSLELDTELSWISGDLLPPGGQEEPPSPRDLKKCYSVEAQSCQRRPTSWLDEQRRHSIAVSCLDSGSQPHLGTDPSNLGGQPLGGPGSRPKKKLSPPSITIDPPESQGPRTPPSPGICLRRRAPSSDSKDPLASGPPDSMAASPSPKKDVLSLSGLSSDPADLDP

SMILES	% of calcium channels blocked (1 μM of comp'd)	% of calcium channels blocked (500 nM of comp'd)
CCCCCCCCCCCCCCCc1cccc(OC(C)C)c1C1C(C(=O)OC)=C(C)NC(C)=C1C(=O)OC [DHP-5, dimethyl 1,4-dihydro-4-(2′-isopropoxy-6′-pentadecylphenyl)-2,6-dimethyl-3,5-pyridine dicarboxylate]	80%	
CCCCCCCCCCCCCCCc1cccc(OCC)c1C1C(C(=O)OCC)=C(C)NC(C)=C1C(=O)OC(C)C (stereo not shown) [DHP-12, ethyl isopropyl 1,4-dihydro-4-(2′-ethoxy-6′-pentadecylphenyl)-2,6-dimethyl-3,5-pyridine dicarboxylate]	77%	5%
COCC(=O)O[C@]1(CCN(C)CCCc2nc3ccccc3[nH]2)CCc2cc(F)ccc2[C@@H]1C(C)C [Mibefradil]	90%	75%
COC(=O)C1=C(C)NC(C)=C(C(=O)OC)C1c1ccccc1[N+](=O)[O-] [Nifedipine]	15%	0%
